pEC50: −log10 of the molar value.
Molecular target: FPR2 (Homo sapiens (Human), UniProt P25090)
Test: FLIPR Ca+2 response, HEK-Gα16 cells stably expressing the human FPR2 receptor (Table 4)
Assay type: cell-based
Conditions: for FPR2 (efficacy): efficacy in parentheses
Method: FLIPR: HEK-Gα16 cells stably expressing the human FPR2 receptor was utilized. Cells were plated into 384-well poly-D-lysine coated plates at a density of 18,000 cells per well one day prior to use. The growth media was DMEM medium supplemented with 10% fetal bovine serum (FBS), 1% antibiotic-antimycotic, 50 μg/ml hygromycin, and 400 μg/ml geneticin. On the day of the experiment, the cells were washed twice with Hank's Balanced Salt Solution supplemented with 20 mM HEPES (HBSS/hepes buffer). The cells were then dye loaded with 2 μM Fluo-4 diluted in the HBSS/Hepes buffer and incubated at 37° C. for 40 minutes. Extracellular dye was removed by washing the cell plates four times prior to placing the plates in the FLIPR (Fluorometric Imaging Plate Reader, Molecular Devices). Ligands were diluted in HBSS/Hepes buffer and prepared in 384-well microplates. Data for Ca^+2 responses were obtained in relative fluorescence units.

Chain of FPR2 (P25090 whole entry): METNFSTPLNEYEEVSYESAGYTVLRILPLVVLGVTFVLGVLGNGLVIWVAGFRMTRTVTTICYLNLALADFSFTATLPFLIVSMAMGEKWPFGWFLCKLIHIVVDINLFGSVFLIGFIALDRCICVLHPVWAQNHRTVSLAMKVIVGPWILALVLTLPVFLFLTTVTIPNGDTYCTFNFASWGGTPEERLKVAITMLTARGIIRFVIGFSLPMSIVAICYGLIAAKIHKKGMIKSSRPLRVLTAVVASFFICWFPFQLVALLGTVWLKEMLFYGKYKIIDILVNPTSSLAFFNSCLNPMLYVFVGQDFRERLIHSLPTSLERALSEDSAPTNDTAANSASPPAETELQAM

Compound	pEC50	FPR2 (efficacy)
CC(C)C1(C(C)C)NC(=O)N(NC(=O)Nc2ccc(Br)cc2)C1=O [Compound 64, 1-(4-bromophenyl)-3-[2,5-dioxo-4,4-di(propan-2-yl)imidazolidin-1-yl]urea]	8.42	nM (1.0)
CCC[C@H](NC(=O)Nc1ccc(Br)cc1)C(=O)NCC(=O)OC(C)C [Compound 73, propan-2-yl {[(2S)-2-{[(4-bromophenyl)carbamoyl]amino}pentanoyl]amino}acetate]	7.84	nM (1.0)
CCOP(=O)(CCNC(=O)CC1(C(C)C)NC(=O)N(NC(=O)Nc2ccc(Br)cc2)C1=O)OCC (stereo not shown) [Compound 152, diethyl [2-({[1-{[(4-bromophenyl)carbamoyl]amino}-2,5-dioxo-4-(propan-2-yl)imidazolidin-4-yl]acetyl}amino)ethyl] phosphonate]	7.96	nM (1.0)
CCOP(=O)(O)CNC(=O)[C@@H](NC(=O)Nc1ccc(Br)cc1)[C@@H](C)CC [Compound 115, ethyl hydrogen ({[(2S,3S)-2-{[(4-bromophenyl)carbamoyl]amino}-3-methylpentanoyl]amino}methyl)phosphonate]	8.57	nM (0.88)
CC(C)C[C@H](NC(=O)Nc1ccc(Br)cc1)C(=O)NCCO [Compound 75, (2S)-2-{[(4-bromophenyl)carbamoyl]amino}-N-(2-hydroxyethyl)-4-methylpentanamide]	7.87	nM (0.76)
CC(C)C[C@H](NC(=O)Nc1ccc(Br)cc1)C(=O)N[C@@H](C)C(=O)O [Compound 90, (2S)-2-{[(2S)-2-{[(4-bromophenyl)carbamoyl]amino}-4-methylpentanoyl]amino} propanoic acid]	7.94	nM (1.0)
CC(C)C1(CC(=O)NCCC(=O)O)NC(=O)N(NC(=O)Nc2ccc(Br)cc2F)C1=O (stereo not shown) [Compound 145, 3-({[-{[(4-bromo-2-fluorophenyl)carbamoyl]amino}-2,5-dioxo-4-(propan-2-yl)imidazolidin-4-yl]acetyl}amino)propanoic acid]	9.00	nM (1.0)
CC(C)C[C@H](NC(=O)Nc1ccc(Br)cc1)C(=O)N(C)CC(=O)O [Compound 155, {[(2S)-2-{[(4-bromophenyl)carbamoyl]amino}-4-methylpentanoyl](methyl)amino} acetic acid]	9.00	nM (1.0)
CC(C)C[C@H](NC(=O)Nc1ccc(Br)cc1)C(=O)NCC(N)=O [Compound 77, (2S)-N-(2-amino-2-oxoethyl)-2-{[(4-bromophenyl)carbamoyl]amino}-4-methylpentanamide]	8.96	nM (1.0)
O=C(O)CCNC(=O)[C@H](Cc1ccccc1)NC(=O)Nc1ccc(Br)cc1 [Compound 56, 3-{[(2S)-2-{[(4-bromophenyl)carbamoyl]amino}-3-phenylpropanoyl]amino} propanoic acid]	–	nM (0.98)
O=C(O)CNC(=O)[C@H](Cc1ccccc1)NC(=O)Nc1ccc(Br)cc1 [Compound 55, {[(2S)-2-{[(4-bromophenyl)carbamoyl]amino}-3-phenylpropanoyl]amino}acetic acid]	–	nM (0.99)
CSc1ccc(NC(=O)Nc2ccc3c(c2)C(=O)N(CCc2c[nH]cn2)C(c2ccco2)C3)cc1 (stereo not shown) [Compound 23, 1-{3-(furan-2-yl)-2-[2-(1H-imidazol-4-yl)ethyl]-1-oxo-1,2,3,4-tetrahydroisoquinolin-7-yl}-3-[4-(methylsulfanyl)phenyl]urea]	–	nM (0.83)
CSc1ccc(NC(=O)Nc2ccc3c(c2)C(=O)N(CCc2c[nH]cn2)C(c2ccc(C#N)cc2)C3)cc1 (stereo not shown) [Compound 17, 1-{3-(4-cyanophenyl)-2-[2-(1H-imidazol-4-yl)ethyl]-1-oxo-1,2,3,4-tetrahydroisoquinolin-7-yl}-3-[4-(methylsulfanyl)phenyl]urea]	8.26	nM (0.92)
CC1(C)C2CCC1C(C(=O)Nc1ccc(Br)cc1)C2C(N)=O (stereo not shown) [Compound 34, N-(4-bromophenyl)-7,7-dimethylbicyclo[2.2.1]heptane-2,3-dicarboxamide]	–	nM (0.83)
CC1(CCc2ccc(O)cc2)NC(=O)N(NC(=O)Nc2ccc(Br)cc2F)C1=O (stereo not shown) [Compound 89, 1-(4-bromo-2-fluorophenyl)-3-{4-[2-(4-hydroxyphenyl)ethyl]-4-methyl-2,5-dioxoimidazolidin-1-yl}urea]	–	nM (0.85)
CSc1ccc(NC(=O)Nc2ccc3c(c2)C(=O)N(CCc2c[nH]cn2)C(c2ccc(Cl)nc2)C3)cc1 (stereo not shown) [Compound 28, 1-{3-(6-chloropyridin-3-yl)-2-[2-(1H-imidazol-4-yl)ethyl]-1-oxo-1,2,3,4-tetrahydroisoquinolin-7-yl}-3-[4-(methylsulfanyl)phenyl]urea]	–	nM (0.89)
CC1(CCc2ccco2)NC(=O)N(NC(=O)Nc2ccc(Br)cc2)C1=O (stereo not shown) [Compound 76, 1-(4-bromophenyl)-3-{4-[2-(furan-2-yl)ethyl]-4-methyl-2,5-dioxoimidazolidin-1-yl}urea]	8.28	nM (0.99)

Compound	pEC50	FPR2 (efficacy)
NC(=O)C1C(C(=O)Nc2ccc(Br)cc2)C2CCC1C21CC1 (stereo not shown) [Compound 30, N-(4-bromophenyl) spiro[bicyclo[2.2.1]heptane-7,1′-cyclopropane]-2,3-dicarboxamide]	8.60	nM (0.96)
CCC[C@H](NC(=O)Nc1ccc(Br)cc1)C(=O)O [Compound 70, (2S)-2-{[(4-bromophenyl)carbamoyl]amino} pentanoic acid]	8.15	nM (1.0)
CCC[C@H](NC(=O)Nc1ccc(Br)cc1F)C(=O)NCC(=O)O [Compound 74, {[(2S)-2-+{[(4-bromo-2-fluorophenyl)carbamoyl]amino}pentanoyl]amino}acetic acid]	8.39	nM (0.91)
CC1(CCc2cccc(F)c2)NC(=O)N(NC(=O)Nc2ccc(Br)cc2)C1=O (stereo not shown) [Compound 83, 1-(4-bromophenyl)-3-{4-[2-(3-fluorophenyl)ethyl]-4-methyl-2,5-dioxoimidazolidin-1-yl}urea]	–	nM (1.0)
NC(=O)C1C(C(=O)Nc2ccc(Br)cc2)C2CCC1C21CC1 (single isomer, unassigned; (-)) [Compound 45, (−) N-(4-bromophenyl)spiro[bicyclo[2.2.1]heptane-7,1′-cyclopropane]-2,3-dicarboxamide]	–	nM (0.91)
CC1(C)C2CCC1C(C(=O)Nc1ccc(I)cc1)C2C(N)=O (stereo not shown) [Compound 35, N-(4-iodophenyl)-7,7-dimethylbicyclo[2.2.1]heptane-2,3-dicarboxamide]	–	nM (0.81)
CC(C)C1(CC(=O)NCCC(=O)O)NC(=O)N(NC(=O)Nc2ccc(Br)cc2)C1=O (stereo not shown) [Compound 147, 3-({[1-{[(4-bromophenyl)carbamoyl]amino}-2,5-dioxo-4-(propan-2-yl)imidazolidin-4-yl]acetyl}amino)propanoic acid]	8.41	nM (0.99)
CC(C)C[C@H](NC(=O)Nc1ccc(C(F)(F)F)cc1)C(=O)NCS(=O)(=O)O [Compound 237, {[(2S)-4-methyl-2-({[4-(trifluoromethyl)phenyl]carbamoyl}amino)pentanoyl]amino} methanesulfonic acid]	8.72	nM (0.99)
CC(C)C[C@H](NC(=O)Nc1ccc(Br)cc1)C(=O)NCc1nnn[nH]1 [Compound 104, (2S)-2-{[(4-bromophenyl)carbamoyl]amino}-4-methyl-N-(1H-tetrazol-5-ylmethyl)pentanamide]	–	nM (0.81)
CCC1(CCc2ccccc2C(=O)O)NC(=O)N(NC(=O)Nc2ccc(Br)cc2F)C1=O (stereo not shown) [Compound 146, 2-[2-(1-{[(4-bromo-2-fluorophenyl)carbamoyl]amino}-4-ethyl-2,5-dioxoimidazolidin-4-yl)ethyl]benzoic acid]	7.95	nM (1.0)
CCC1(C(C)C)NC(=O)N(NC(=O)Nc2ccc(Br)cc2)C1=O (single isomer, unassigned; (-)) [Compound 67, (−)1-(4-bromophenyl)-3-[4-ethyl-2,5-dioxo-4-(propan-2-yl)imidazolidin-1-yl]urea]	–	nM (1.0)
O=C(O)CNC(=O)C(Cc1c[nH]c2ccccc12)NC(=O)Nc1ccc(Br)cc1 (stereo not shown) [Compound 150, {[2-{[(4-bromophenyl)carbamoyl]amino}-3-(1H-indol-3-yl)propanoyl]amino}acetic acid]	8.85	nM (0.98)
O=C(Nc1ccc(Br)cc1)NC(Cc1ccccc1)C(=O)NC1CCCCNC1=O (stereo not shown) [Compound 10, 2-{[(4-bromophenyl)carbamoyl]amino}-N-(2-oxoazepan-3-yl)-3-phenylpropanamide]	7.96	nM (0.89)
CCC1(CCc2ccccc2C(=O)O)NC(=O)N(NC(=O)Nc2ccc(Br)cc2)C1=O (stereo not shown) [Compound 143, 2-[2-(1-{[(4-bromophenyl)carbamoyl]amino}-4-ethyl-2,5-dioxoimidazolidin-4-yl)ethyl]benzoic acid]	7.76	nM (1.0)
CCOP(=O)(O)CNC(=O)[C@H](CC(C)C)NC(=O)Nc1ccc(C(F)(F)F)cc1 [Compound 135, ethyl hydrogen ({[(2S)-4-methyl-2-({[4-(trifluoromethyl)phenyl]carbamoyl}amino)pentanoyl]amino}methyl)phosphonate]	8.72	nM (0.91)
CCOP(=O)(CNC(=O)[C@H](Cc1ccccc1)NC(=O)Nc1ccc(Br)cc1)OCC [Compound 118, diethyl ({[(2S)-2-{[(4-bromophenyl)carbamoyl]amino}-3-phenylpropanoyl]amino}methyl)phosphonate]	7.79	nM (0.93)

— patent US10208071B2, “Use of agonists of formyl peptide receptor 2 for treating ocular inflammatory diseases” (Allergan, Inc., priority 2013, dated 2019)
